Measured values from article PMC10064984, “Anti-cyclooxygenase, anti-glycation, and anti-skin aging effect of Dendrobium officinale flowers’ aqueous extract and its phytochemical validation in aging” (Frontiers in Immunology, 2023).
Values joined by “and” are separate entries in the source; they are usually repeats but may differ in a detail not shown here. Equal values may be shown once. Read-outs that look alike come from different tables or passages of the source. Values belong to the compound of their own block, whether it stands above or below them.

Columns and labels:
Type in all cases: biochemical
[1] = FRAP total antioxidant capacity;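 also: colourimetric FRAP kit assay read as absorbance in 96-well plates, values as mM FeSO4 via standard curve, EC1 being sample concentration matching 1.0 mmol/L FeSO4, Trolox positive control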
DPPH· scavenging = settings: mean ± SD, n = 3
[2] = Fluorescent AGEs formation in a BSA-fructose/glucose system; settings: for inhibition of fluorescent AGEs formation (BSA-抗糖化), single replicate: individual replicate; for inhibition of fluorescent AGEs formation (BSA-抗糖化), 平均 (mean): mean of 3 replicates; for IC50: mean ± SD, n = 3, read-out: BSA-glycation IC50
Procedure, shortened: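 Fluorescent AGE inhibition was measured in triplicate, correcting sample and control fluorescence for BSA-free blanks. Glycation used BSA incubated with D-fructose and D-glucose, with samples dissolved in DMSO:water (1:4).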

[3] = ABTS·+ decolourisation capacity; settings: mean ± SD, n = 3
Procedure, shortened: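 IC50 values were derived graphically from dose-inhibition curves, with % inhibition calculated versus a buffer-only (0.2 M phosphate, pH 7.4) control. Each sample (200 μl) reacted for 10 min with 100 μl ABTS·+ reagent pre-set to A729 0.8 ± 0.05, then absorbance at 729 nm was measured in triplicate.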

COX-2 = biological target: T1, COX-2 (Homo sapiens, UniProt P35354); test: Anti-COX-2 assay (COX-2 Inhibitor Screening Kit)
T1 construct: purchased Beyotime S0168
T1 sequence (P35354 18-604): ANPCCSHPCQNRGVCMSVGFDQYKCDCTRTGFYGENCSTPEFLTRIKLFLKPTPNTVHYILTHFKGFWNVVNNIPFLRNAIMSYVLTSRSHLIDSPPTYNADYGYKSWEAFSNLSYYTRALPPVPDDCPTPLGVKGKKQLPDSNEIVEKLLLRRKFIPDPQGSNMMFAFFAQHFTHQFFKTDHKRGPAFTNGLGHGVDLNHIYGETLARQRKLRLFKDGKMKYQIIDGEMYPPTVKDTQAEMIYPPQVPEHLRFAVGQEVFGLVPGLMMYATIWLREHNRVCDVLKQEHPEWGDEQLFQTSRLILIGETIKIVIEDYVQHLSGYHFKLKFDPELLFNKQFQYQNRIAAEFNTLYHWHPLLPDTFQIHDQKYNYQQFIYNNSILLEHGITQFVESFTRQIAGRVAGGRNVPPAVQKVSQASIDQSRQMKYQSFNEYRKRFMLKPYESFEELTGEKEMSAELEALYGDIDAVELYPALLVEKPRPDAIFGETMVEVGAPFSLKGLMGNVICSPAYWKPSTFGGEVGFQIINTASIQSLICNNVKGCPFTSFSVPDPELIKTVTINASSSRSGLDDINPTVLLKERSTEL

[4] = lower part of sheet (compound series)

IC50 (DPPH· scavenging): > 5000 µM | IC50 [2]: 273 ± 4.7 µM | IC50 [3]: 80.36 ± 0.77 µM | COX-2 inhibition (in words) (COX-2): no inhibitory effects
SMILES: O=c1cc(-c2ccc(O)cc2)oc2c(C3OCC(O)C(O)C3O)c(O)c(C3OCC(O)C(O)C3O)c(O)c12 [compound 26, Apigenin-6-C-α-L-arabinoside-8-C-β-D-xyloside]
FRAP EC1 [1, 4]: >5000 µM | inhibition of fluorescent AGEs formation (BSA-抗糖化), single replicate ([2]; 15.625 µM, listed as T10, 15.625 µM): -0.15% and 0.19% and 0.09% | inhibition of fluorescent AGEs formation (BSA-抗糖化), 平均 (mean) ([2]; 15.625 µM): 0.045% | inhibition of fluorescent AGEs formation (BSA-抗糖化), single replicate ([2]; 31.25 µM, listed as T10, 31.25 µM): 6.49% and 8.31% and 6.26% | inhibition of fluorescent AGEs formation (BSA-抗糖化), 平均 (mean) ([2]; 31.25 µM): 7.02% | inhibition of fluorescent AGEs formation (BSA-抗糖化), single replicate ([2]; 62.5 µM, listed as T10, 62.5 µM): 15.98% and 16.92% and 15.72% | inhibition of fluorescent AGEs formation (BSA-抗糖化), 平均 (mean) ([2]; 62.5 µM): 16.21% | inhibition of fluorescent AGEs formation (BSA-抗糖化), single replicate ([2]; 125 µM, listed as T10, 125 µM): 27.64% and 28.36% and 29.90% | inhibition of fluorescent AGEs formation (BSA-抗糖化), 平均 (mean) ([2]; 125 µM): 28.63% | inhibition of fluorescent AGEs formation (BSA-抗糖化), single replicate ([2]; 250 µM, listed as T10, 250 µM): 48.76% and 48.06% and 47.15% | inhibition of fluorescent AGEs formation (BSA-抗糖化), 平均 (mean) ([2]; 250 µM): 47.99% | inhibition of fluorescent AGEs formation (BSA-抗糖化), single replicate ([2]; 500 µM, listed as T10, 500 µM): 67.27% and 67.99% and 65.66% | inhibition of fluorescent AGEs formation (BSA-抗糖化), 平均 (mean) ([2]; 500 µM): 66.98% | inhibition of fluorescent AGEs formation (BSA-抗糖化), single replicate ([2]; 1000 µM, listed as T10, 1000 µM): 82.36% and 81.32% and 81.69% | inhibition of fluorescent AGEs formation (BSA-抗糖化), 平均 (mean) ([2]; 1000 µM): 81.79% | inhibition of fluorescent AGEs formation (BSA-抗糖化), single replicate ([2]; 2000 µM, listed as T10, 2000 µM): 90.52% and 90.97% and 89.78% | inhibition of fluorescent AGEs formation (BSA-抗糖化), 平均 (mean) ([2]; 2000 µM): 90.42% | inhibition of fluorescent AGEs formation (BSA-抗糖化), single replicate ([2]; 4000 µM (series head 'T9 4000µM', 2-fold dilutions), listed as T10): 95.10% and 95.64% and 95.09% | inhibition of fluorescent AGEs formation (BSA-抗糖化), 平均 (mean) ([2]; 4000 µM): 95.27%

IC50 (DPPH· scavenging): 2370 µM | IC50 [2]: 209 ± 3.1 µM | IC50 [3]: 44.7 ± 1.52 µM | inhibition at 31.25 µM (COX-2; 31.25 μM, single replicates): 5.99% | COX-2 inhibition (COX-2; 31.25 μM, single replicates, listed as T14, 31.25 µM): 4.35% | COX-2 inhibition (COX-2; 62.5 μM, single replicates, listed as T14, 62.5 µM): -8.14% and 8.77% and -5.55% | COX-2 inhibition (COX-2; 125 μM, single replicates, listed as T14, 125 µM): 16.41% and 9.67% and 1.80% | COX-2 inhibition (COX-2; 250 μM, single replicates, listed as T14, 250 µM): 18.89% and 38.58% and 20.11% | inhibition at 500 µM (COX-2; 500 μM, single replicates): 53.6% | COX-2 inhibition (COX-2; 500 μM, single replicates, listed as T14, 500 µM): 61.95% and 42.08% | inhibition at 1000 µM (COX-2; 1000 μM, single replicates): 77.5% | COX-2 inhibition (COX-2; 1000 μM, single replicates, listed as T14, 1000 µM): 79.82% and 70.09% | inhibition at 2000 µM (COX-2; 2000 μM (2mM), single replicates): 76.1% | COX-2 inhibition (COX-2; 2000 μM (2mM), single replicates, listed as T14): 78.14% and 68.80% | IC50 (COX-2; mean ± SD, n = 3, nd, not detected, read-out: COX-2 IC50): 535 ± 150 µM | IC50 (COX-2; supplement sheet COX, read-out: COX-2 IC50, single replicate): 515 µM and 396 µM and 694 µM
SMILES: COc1cc(-c2oc3cc(O)cc(O)c3c(=O)c2OC2OC(CO)C(O)C(O)C2O)ccc1O (centres unmarked) [compound 32, Isorhamnetin-3-O-glucoside]
FRAP EC1 [1, 4]: 2757.3 ± 103.8 µM | FRAP EC1 ([1]; mean ± SD, n = 3): 2,757.3 ± 103.8 μM | inhibition of fluorescent AGEs formation (BSA-抗糖化), single replicate ([2]; 15.625 µM, listed as T14, 15.625 µM): 6.47% and 9.81% and 6.23% | inhibition of fluorescent AGEs formation (BSA-抗糖化), 平均 (mean) ([2]; 15.625 µM): 7.50% | inhibition of fluorescent AGEs formation (BSA-抗糖化), single replicate ([2]; 31.25 µM, listed as T14, 31.25 µM): 13.37% and 12.51% and 13.56% | inhibition of fluorescent AGEs formation (BSA-抗糖化), 平均 (mean) ([2]; 31.25 µM): 13.15% | inhibition of fluorescent AGEs formation (BSA-抗糖化), single replicate ([2]; 62.5 µM, listed as T14, 62.5 µM): 22.22% and 24.18% and 24.11% | inhibition of fluorescent AGEs formation (BSA-抗糖化), 平均 (mean) ([2]; 62.5 µM): 23.51% | inhibition of fluorescent AGEs formation (BSA-抗糖化), single replicate ([2]; 125 µM, listed as T14, 125 µM): 35.72% and 35.84% and 36.17% | inhibition of fluorescent AGEs formation (BSA-抗糖化), 平均 (mean) ([2]; 125 µM): 35.91% | inhibition of fluorescent AGEs formation (BSA-抗糖化), single replicate ([2]; 250 µM, listed as T14, 250 µM): 54.28% and 53.83% and 54.39% | inhibition of fluorescent AGEs formation (BSA-抗糖化), 平均 (mean) ([2]; 250 µM): 54.17% | inhibition of fluorescent AGEs formation (BSA-抗糖化), single replicate ([2]; 500 µM, listed as T14, 500 µM): 70.40% and 70.98% and 71.44% | inhibition of fluorescent AGEs formation (BSA-抗糖化), 平均 (mean) ([2]; 500 µM): 70.94% | inhibition of fluorescent AGEs formation (BSA-抗糖化), single replicate ([2]; 1000 µM, listed as T14, 1000 µM): 83.59% and 83.42% and 83.56% | inhibition of fluorescent AGEs formation (BSA-抗糖化), 平均 (mean) ([2]; 1000 µM): 83.53% | inhibition of fluorescent AGEs formation (BSA-抗糖化), single replicate ([2]; 2000 µM, listed as T14, 2000 µM): 91.04% and 91.39% and 91.09% | inhibition of fluorescent AGEs formation (BSA-抗糖化), 平均 (mean) ([2]; 2000 µM): 91.17% | inhibition of fluorescent AGEs formation (BSA-抗糖化), single replicate ([2]; 4000 µM (series head 'T9 4000µM', 2-fold dilutions), listed as T14): 95.57% and 95.55% and 95.41% | inhibition of fluorescent AGEs formation (BSA-抗糖化), 平均 (mean) ([2]; 4000 µM): 95.51%
